The text below walks through data of ChEMBL document CHEMBL4627333, “Addition of ethylamines to the phenols of bithionol and synthetic retinoids does not elicit activity in gram-negative bacteria” (2020).

In assay [1] the test system is Staphylococcus aureus. In words: Membrane disrupting activity in methicillin-resistant Staphylococcus aureus MW2 assessed as antibacterial activity by measuring inhibition of bacterial growth by CLSI-based antimicrobial dilution susceptibility method.
Assay [2] deals with Staphylococcus aureus. In words: Membrane disrupting activity in methicillin-resistant Staphylococcus aureus BF1 assessed as antibacterial activity by measuring inhibition of bacterial growth by CLSI-based antimicrobial dilution susceptibility method.
Assay [3] relates to Staphylococcus aureus. In words: Membrane disrupting activity in methicillin-resistant Staphylococcus aureus BF2 assessed as antibacterial activity by measuring inhibition of bacterial growth by CLSI-based antimicrobial dilution susceptibility method.
Assay [4] deals with Staphylococcus aureus. Briefly: Membrane disrupting activity in methicillin-resistant Staphylococcus aureus BF3 assessed as antibacterial activity by measuring inhibition of bacterial growth by CLSI-based antimicrobial dilution susceptibility method.
Assay [5] concerns Pseudomonas aeruginosa. Briefly: Membrane disrupting activity in Pseudomonas aeruginosa PA14 assessed as antibacterial activity by measuring inhibition of bacterial growth by CLSI-based antimicrobial dilution susceptibility method.
For assay [6], the system named is Klebsiella pneumoniae. Briefly: Membrane disrupting activity in Klebsiella pneumoniae WGLW2 assessed as antibacterial activity by measuring inhibition of bacterial growth by CLSI-based antimicrobial dilution susceptibility method. Conditions: subsp. pneumoniae WGLW2.
For assay [7], the system named is Acinetobacter baumannii. In words: Membrane disrupting activity in Acinetobacter baumannii ATCC 17978 assessed as antibacterial activity by measuring inhibition of bacterial growth by CLSI-based antimicrobial dilution susceptibility method.

≈ marks a conversion by molar mass, not a printed value.

The term MIC denotes the lowest concentration that inhibits growth of the organism. Turning to `NCCOc1c(Cl)cc(Cl)cc1Sc1cc(Cl)cc(Cl)c1OCCN`, the MIC is 64 µg/mL (≈ 145 µM) in assay [1]; 64 µg/mL (≈ 145 µM) in assay [2]; 64 µg/mL (≈ 145 µM) in assay [3]; 32 µg/mL (≈ 72.4 µM) in assay [4]; over 64 µg/mL in assay [5]; 64 µg/mL (≈ 145 µM) in assay [6]. Moreover, the MIC in assay [7] was 64 µg/mL (≈ 145 µM).

Regarding `Oc1c(Cl)cc(Cl)cc1Sc1cc(Cl)cc(Cl)c1O` [BITHIONOL], the MIC in assay [1] is 1 µg/mL (≈ 2.81 µM); in assay [2], 1 µg/mL (≈ 2.81 µM); in assay [3], 1 µg/mL (≈ 2.81 µM); in assay [4] it was 0.5 µg/mL (≈ 1.4 µM); in assay [5] it was 32 µg/mL (≈ 89.9 µM); in assay [6], 64 µg/mL (≈ 180 µM). In assay [7], the MIC came out at 16 µg/mL (≈ 44.9 µM).

Consider `NCCOc1cc(C(=O)O)cc2ccc(-c3ccc(O)c(C45CC6CC(CC(C6)C4)C5)c3)cc12`, for which the MIC in assay [1] is 8 µg/mL (≈ 17.5 µM); in assay [2] it was 8 µg/mL (≈ 17.5 µM); in assay [3], 16 µg/mL (≈ 35 µM); in assay [4], 4 µg/mL (≈ 8.74 µM); in assay [5] it was over 64 µg/mL; in assay [6] it was over 64 µg/mL. Also, the minimum inhibitory concentration (MIC) in assay [7] is over 64 µg/mL.

Turning to `NCCOc1ccc(-c2ccc3cc(CO)ccc3c2)cc1C12CC3CC(CC(C3)C1)C2`, the MIC in assay [1], in assay [2], in assay [3], in assay [4], in assay [5] and in assay [6] was over 64 µg/mL each time. In addition, the MIC in assay [7] is over 64 µg/mL.

Turning to `NCCOc1ccc(-c2ccc3cc(C(=O)O)ccc3c2)cc1C12CC3CC(CC(C3)C1)C2`, the MIC in assay [1], in assay [2], in assay [3], in assay [4], in assay [5] and in assay [6] was over 64 µg/mL each time. The MIC in assay [7] was over 64 µg/mL.

For the molecule `O=C(O)c1ccc2cc(-c3ccc(O)c(C45CC6CC(CC(C6)C4)C5)c3)ccc2c1` [O-DEMETHYLATED ADAPALENE], the MIC in assay [1] is 2 µg/mL (≈ 5.02 µM); in assay [2], 2 µg/mL (≈ 5.02 µM); in assay [3], 2 µg/mL (≈ 5.02 µM); in assay [4], 1 µg/mL (≈ 2.51 µM); in assay [5], over 64 µg/mL; in assay [6] it was over 64 µg/mL. Further, in assay [7], the MIC was over 64 µg/mL.

Take `NCCOc1cc(CO)cc2ccc(-c3ccc(O)c(C45CC6CC(CC(C6)C4)C5)c3)cc12`: the minimal inhibitory concentration (MIC) in assay [1] is 4 µg/mL (≈ 9.02 µM); in assay [2], 4 µg/mL (≈ 9.02 µM); in assay [3] it was 4 µg/mL (≈ 9.02 µM); in assay [4], 4 µg/mL (≈ 9.02 µM); in assay [5], over 64 µg/mL; in assay [6], over 64 µg/mL. Besides, the MIC in assay [7] is over 64 µg/mL.
